Experimental data as given in US20250114294A1, “COMPOSITIONS SUITABLE FOR USE IN SKIN CARE” (Johnson & Johnson Consumer Inc., priority 2023, published 2025).

Columns and labels:
Assay type in all cases: cell-based, human
[1] = tested on: cellular retinoic acid binding protein 2 (CRABP2); test: CRABP2 gene expression (TaqMan qPCR) in EpiDerm Full Thickness skin equivalents; details: EFT-400 skin equivalents, 4 μL topical, 24 hours, normalized to POLR2A, vs PgETOH vehicle
Description: (§1) EpiDerm Full Thickness Skin 3D Equivalents (EFT-400) were purchased from MatTek Corporation (Ashland, MA 01721; lot number 34272, kit N & kit P). Upon receipt the skin equivalents were transferred in new 6-well plates (MatTek Corporation, Ashland, MA 01721) with 2.5 mL of EFT-400 medium (MatTek Corportion, Ashland, MA) and equilibrated overnight.
(§2) The following day, skin equivalents were treated topically with 4 μL of the following treatments: Vehicle, 0.04% Retinol, 0.04% Retinol +0.05% Myrrh resin extract, or 0.04% Retinol +0.1% Myrrh resin extract.
(§3) Propylene glycol/ethanol (PgETOH) (3:7) (w/w) was used as a vehicle. Retinol (BASF 50C) was diluted in PgETOH to a stock concentration of 0.4%. 0.4% Retinol was further diluted to make 0.08% Retinol. Since Retinol is 50% active, the percent active Retinol in the final treatment solution was 0.04% Retinol. Myrrh resin extract (Firmenich) was weighed out to 16.1 mg and diluted in 1.6 mL of PgETOH for a 1% Myrrh resin extract stock solution.
(§4) To make the 0.04% Retinol+0.1% Myrrh resin extract treatment solution combine 100 μL of the 0.4% retinol stock solution, 50 μL of the 1% Myrrh resin extract stock solution, and 350 μL of PgETOH. […]
(§5) The fold changes were calculated in comparison to the vehicle control and two-tailed two-sample Student t-tests (Microsoft Office Excel 2007; Microsoft, Redmond, WA, USA) were performed. […]

aquaporin-3 (AQP3) = test: AQP3 gene expression (TaqMan qPCR) in EpiDerm Full Thickness skin equivalents; details: EFT-400 skin equivalents, 4 μL topical, 24 hours, normalized to POLR2A, vs PgETOH vehicle
Description: as §1, §2, §3, §4, §5

interleukin-8 (IL8) = test: IL8 gene expression (TaqMan qPCR) in EpiDerm Full Thickness skin equivalents; details: EFT-400 skin equivalents, 4 μL topical, 24 hours, normalized to POLR2A, vs PgETOH vehicle; irritation marker
Description: as §1, §2, §3, §4, §5

CC1=C(/C=C/C(C)=C/C=C/C(C)=C/CO)C(C)(C)CCC1 [Sample 2, Retinol]
CRABP2 Average fold change over untreated [1]: 2.22 | AQP3 Average fold change over untreated (aquaporin-3 (AQP3)): 1.82 | IL8 Average fold change over untreated (interleukin-8 (IL8)): 1.22
